In patent publication US20010047524A1, “Methods and tissue culture media for inducing somatic embryogenesis, agrobacterium-mediated transformation and efficient regeneration of cacao plants” (priority 1997, published 2001):

Tested on: staminode and petal base explants of cacao genotype Sca-6
Experiment: Somatic embryogenesis from cacao floral explants cultured on PCG medium containing various concentrations of TDZ
Assay type: cell-based, Theobroma cacao L.
Protocol: Primary callus growth (PCG) medium was prepared by combining the following solutions and compounds (per liter): 100 ml each DKW macro solutions A and B, 10 ml DKW micro solution, 1 ml DKW vitamin solution, 20 g glucose, 250 mg glutamine, 100 mg myo-inositol, 100 ml 2,4-D solution, 10 ml TDZ solution, and 2.0 g phytagel, and the pH was adjusted to 5.8.
The staminodes and petal base explants from the four flower buds were then transferred into a Petri dish containing 30 ml of PCG medium. Any fused staminodes and petal base explants were separated and explants were distributed evenly across the medium. The Petri dishes were sealed with a double layer of parafilm and cultures were maintained in the dark at 25±2° C. for 14 days (FIG. 2a). Growth reduction, senescence, and tissue browning may occur with subculture intervals longer than 14 days.
The staminode and petal base explants were then transferred from a PCG medium to a Petri dish containing 30 ml of SCG medium. The dishes were sealed and the cultures were maintained in the dark for 14 days at 25±2° C. Globular calli were produced on the entire tissue explant at the end of this culture period (FIG. 2b).
Staminode and petal base explants and calli derived in the callus induction step were transferred to Petri dishes containing 30 ml of ED medium. Explants were cultured in the dark for 14 days at 25±2° C. Explants were then subcultured onto the fresh ED medium and maintained in the dark for another 14 days. By that time, numerous somatic embryos at globular and heart-shaped stages of development were visible on the embryogenic calli (FIG. 2c and d).
The effect of TDZ concentration on somatic embryogenesis from staminode explants of five cacao genotypes was determined and is shown in FIG. 3. Staminodes were cultured on PCG medium containing various concentrations of TDZ. […] Data were collected two months after culture initiation. Each treatment contained 20 staminodes per plate with three replicate plates. The values shown in FIG. 3 represent the average percentage rates of embryo-producing staminodes from three repeated experiments. Up to 100% of cultured staminode and over 60% of petal base explants from cacao genotype Sca-6 produced somatic embryos (FIG. 3).
The effect of TDZ concentration on somatic embryo production from staminode explants of five cacao genotypes was determined and is shown in FIG. 4. Staminodes were cultured on PCG medium containing various concentrations of TDZ. […] Data were collected two months after culture initiation. Each treatment contained 20 staminodes per plate with three replica plates. Values represent the average number of somatic embryos per responsive staminode from three repeated experiments. […]

[1] = two months after culture initiation, FIG. 4

O=C(Nc1ccccc1)Nc1cnns1 [TDZ, thidiazuron]
petal base explants that produced somatic embryos (FIG. 3): over 60% | cultured staminode explants that produced somatic embryos (PCG medium with various TDZ concentrations, then SCG and ED medium, two months after culture initiation, FIG. 3): Up to 100% | average number of primary somatic embryos per responsive staminode [1]: about 46 | primary somatic embryos produced by a single staminode explant (maximum) [1]: up to 140
